Data published in US12018281B2, “Cardiomyocyte maturation promoter” (Kyoto University, priority 2018, dated 2024).

What follows are molecules tested on embryoid bodies/cardiomyocytes derived from double knock-in human iPS cell lines (EmGFP at TNNI1, mCherry at TNNI3) (assay: mCherry expression in TNNI1+ cells by flow cytometry (Experimental Example 2)). Settings: 40 nM, 10th to 16th day of differentiation, controls 7.4 (no addition), 10.2 (0.1% DMSO).
Assay type: cell-based
Protocol: (§1) For detection of cardiomyocyte maturation, double knock-in human iPS cell lines, in which reporter protein sequences, EmGFP (Sequence Number 1) and mCherry (Sequence Number 2) were inserted into gene loci for TNNI1 and TNNI3, respectively, were prepared (the human iPS cells were prepared from episomal vector (loaded gene; OCT3/4, KLF4, SOX2, L-MYC, LIN28, mouse p53DD) using PBMC (LP_167, Sample ID:20130318) purchased from CTL (reference literature; Okita K, et al. Stem Cells. 2012 Nov. 29. doi: 10.1002/stem.1293)).
(§2) The maintenance culture of the above-mentioned reporter iPS cell lines was carried out by a conventional method (Okita K, et al. Stem Cells. 2012 Nov. 29. doi: 10.1002/stem.1293).
For differentiation induction into cardiomyocytes, the reporter iPS cell lines were treated with 0.5×TrypLE select (Life Technologies, diluted in ½ with 0.5 mM EDTA/PBS) for 4 to 5 minutes, and the cells were exfoliated using a cell scraper (IWAKI), and then dissociated into the single cell by pipetting. […]

Row | Compound | mCherry+ (%)
1 | CCn1nnc2cc(COC(=O)Nc3sc(-c4ccc(C)cc4OC)nc3C)ccc21 [Example No. 2, (1-ethyl-1H-benzotriazol-5-yl)methyl (2-(2-methoxy-4-methylphenyl)-4-methyl-1,3-thiazol-5-yl)carbamate] | 36.1

What follows are molecules tested on cardiomyocytes derived from double knock-in human iPS cell lines (EmGFP at TNNI1, mCherry at TNNI3) (assay: TNNI3-mCherry reporter expression by anti-mCherry immunostaining and high contents screening (Experimental Example 1)). Settings: 1 μM test compound added on 3rd and 6th culture days, measured on 8th culture day; Alexa 647 (anti-mCherry); average of n=3; control well (no addition) 797.
Assay type: cell-based
Protocol: as §1, §2
For differentiation induction into cardiomyocytes, the reporter iPS cell lines were treated with 0.5×TrypLE select (Life Technologies, diluted in ½ with 0.5 mM EDTA/PBS) for 4 to 5 minutes, and the cells were exfoliated using a cell scraper (IWAKI), and then dissociated into the single cell by pipetting. The medium was removed by centrifugation (1,000 rpm, 5 min), and the obtained cells were seeded on a bioreactor (ABLE) by 1×10^7 cells per 30 mL of the bioreactor, and then cultured in a medium prepared by adding 1% L-glutamine, transferrin 150 μg/mL, ascorbic acid 50 μg/mL (Sigma), monothioglycerol 4×10^−4 M, 10 μM Rock inhibitor (Y-27632), 2 ng/mL BMP4 (R&D) and 0.5% Matrigel (Growth Factor Reduced) to a medium after removal of solution C from StemFit AK02 (AJINOMOTO AK02, 400 mL of solution A and 100 mL of B solution, total 500 mL), at 37° C., under 5% oxygen condition (55 rpm, stirred suspension culture method) to form embryoid bodies (0 day).
Next day (1st day), 9 μL (final concentration 3 ng/mL) of […], 15 μL (final concentration 5 ng/mL) of 10 μg/mL bFGF and […] (final concentration 10 ng/mL) of 10 μg/mL BMP4 were added to the bioreactor, and the cells were cultured at 37° C. for additional 2 days, under 5% oxygen condition.
Then (3rd day), the obtained embryoid bodies were collected in a 50 mL centrifuge tube, and then subjected to centrifugation (200 g, 1 min). The medium was removed, and the embryoid bodies were cultured in a medium prepared by adding 1% L-glutamine, transferrin 150 μg/mL, ascorbic acid 50 μg/mL (Sigma), monothioglycerol 4×10^−4 M, 10 ng/mL VEGF, 1 μM IWP-3, 0.6 μM dorsomorphin and 5.4 μM SB431542 to a medium after removal of solution C from StemFit AK02 (AJINOMOTO AK02, 400 mL of solution A and 100 mL of B solution, total 500 mL), at 37° C. for 3 days, under 5% oxygen condition (55 rpm, stirred suspension culture method).
Then (6th day), the bioreactor was left to stand to precipitate the embryoid bodies, and 80 to 90% of the medium was removed. A medium prepared by adding 1% L-glutamine, transferrin 150 μg/mL, ascorbic acid 50 μg/mL (Sigma), monothioglycerol 4×10^−4 M and 5 ng/mL VEGF to a medium after removal of solution C from StemFit AK02 (AJINOMOTO AK02, 400 mL of solution A and 100 mL of B solution, total 500 mL) was added to the bioreactor so that the total volume became 30 mL, and the embryoid bodies were cultured for 8 days, at 37° C., under 5% oxygen condition (55 rpm, stirred suspension culture method). During the culture, the medium was replaced with a medium under the same conditions every 2 to 3 days.
14th Day after the start of the differentiation induction, the embryoid bodies were treated with 2 mg/mL collagenase type I (Sigma) for 2 hr, and then with 0.25% trypsin/EDTA (Invitrogen) for 10 min. 50% FBS/IMDM (Thermo Fisher Science) was added thereto, and the embryoid bodies were dissociated into the single cell by pipetting, and then subjected to centrifugation (1,000 rpm, 5 minutes). […]

Row | Compound | average fluorescent intensity (at 1 μM)
2 | COc1ccc(/C=C\c2cc(OC)c(OC)c(OC)c2)cc1O [Example No. 1, 2-methoxy-5-((Z)-2-(3,4,5-trimethoxyphenyl)vinyl)phenol] | 1381
3 | CCn1nnc2cc(COC(=O)Nc3sc(-c4ccc(C)cc4OC)nc3C)ccc21 [Example No. 2, (1-ethyl-1H-benzotriazol-5-yl)methyl (2-(2-methoxy-4-methylphenyl)-4-methyl-1,3-thiazol-5-yl)carbamate] | 1331
4 | CC[C@]1(O)C[C@H]2CN(CCc3c([nH]c4ccccc34)[C@@](C(=O)OC)(c3cc4c(cc3OC)N(C=O)[C@H]3[C@@](O)(C(=O)OC)[C@H](OC(C)=O)[C@]5(CC)C=CCN6CC[C@]43[C@@H]65)C2)C1 [Example No. 3, (2′beta)-22-oxovincaleukoblastine] | 1710
5 | Clc1ccc(CCc2nc3cc(-c4ccco4)cnc3[nH]2)cc1 [Example No. 4, 2-(2-(4-chlorophenyl)ethyl)-6-(2-furyl)-3H-imidazo[4,5-b]pyridine] | 1125
6 | COc1ccc(C[C@H](NC(=O)[C@H](C)NC(=O)CN2CCOCC2)C(=O)N[C@@H](Cc2ccccc2)C(=O)[C@]2(C)CO2)cc1 [Example No. 5, 4,5-anhydro-1,2-dideoxy-4-methyl-2-((N-(morpholin-4-ylacetyl)-L-alanyl-O-methyl-L-tyrosyl)amino)-1-phenyl-L-threo-pent-3-ulose] | 1791
7 | COc1cccc(-c2cc3ccc(N(C)C)cc3c(N)n2)c1 [Example No. 6, 3-(3-methoxyphenyl)-N7,N7-dimethylisoquinoline-1,7-diamine] | 1305
8 | COC(=O)c1c(C)[nH]c(C)c1C(=O)c1ccccc1Cc1ccccc1 [Example No. 7, methyl 4-(2-benzylbenzoyl)-2,5-dimethyl-1H-pyrrole-3-carboxylate] | 1294
9 | Nc1ccc(-c2nc3cc(-c4nc5cc(N)ccc5[nH]4)ccc3[nH]2)cc1 [Example No. 8, 2′-(4-aminophenyl)-1H,1′H-2,5′-bibenzimidazol-5-amine] | 1150
